Here are results for three molecules from ChEMBL document CHEMBL5032516, “Synthesis and structural characterization of a monocarboxylic inhibitor for GRB2 SH2 domain” (Bioorg Med Chem Lett, 2021).

Structures are written as SMILES.

A short description of data set [1]: Permeability of compound assessed as percentage transport at 500 uM after 5 hrs by PAMPA assay. The format is ADME.
Data set [2] deals with T1, Growth factor receptor-bound protein 2 (Homo sapiens, UniProt P62993). Briefly: Displacement of FITC-Ahx-PVPePYINQSVPKRK-NH2 from N-terminal His6-tagged human full length GRB2 (1 to 217 residues) expressed in Escherichia coli by fluorescence anisotropy assay. On the technique in general: In fluorescence polarisation assays a small probe gives low polarisation when free and higher when bound to something large.

Data set [3] deals with T1, Growth factor receptor-bound protein 2.
Data set [4] is described as follows: Apparent permeability of compound at 500 uM after 5 hrs by PAMPA assay. The format is ADME. (The PAMPA barrier holds no transporters, so it reflects passive diffusion.)

What is called IC50 is the concentration that gives 50% inhibition. Higher therefore signals lower potency. Broadly, the Ki is a dissociation constant, usually derived from enzyme kinetics or from competition with a known ligand. The low end stands for tighter binding, the high end for weaker binding. As a reminder, the Papp is a coefficient for how fast a substance crosses the barrier.

T1 sequence (P62993 whole entry, the tested form may be a part): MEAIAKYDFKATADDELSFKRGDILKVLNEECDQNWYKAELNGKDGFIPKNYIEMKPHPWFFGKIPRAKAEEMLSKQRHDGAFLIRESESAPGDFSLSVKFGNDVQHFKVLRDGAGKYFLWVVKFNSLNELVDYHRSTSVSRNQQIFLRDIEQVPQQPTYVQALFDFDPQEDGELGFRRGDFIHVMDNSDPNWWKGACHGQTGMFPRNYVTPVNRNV

As to `NC(=O)C[C@@H]1NC(=O)C2(CCCCC2)NC(=O)C[C@@H](c2ccc(CP(=O)(O)O)cc2)/C=C/C[C@@H](Cc2cccc3ccccc23)CNC1=O`, the permeability in data set [1] amounted to 0%. In data set [2], the IC50 amounted to 350 nM. In data set [3], this molecule gave a Ki of 16 nM.

For the molecule `NC(=O)C[C@@H]1NC(=O)C2(CCCCC2)NC(=O)C[C@@H](c2ccc(CC(=O)O)cc2)/C=C/C[C@@H](Cc2cccc3ccccc23)CNC1=O`, the permeability in data set [1] was 24.3%. Besides, the IC50 in data set [2] stood at 740 nM. In addition, the Papp at 5 h, 500 µM in data set [4] was found to be 19.2 ×10⁻⁶ cm/s. In data set [3], the Ki was 140 nM.

`COC(=O)Cc1ccc([C@H]2/C=C/C[C@@H](Cc3cccc4ccccc34)CNC(=O)[C@H](CC(N)=O)NC(=O)C3(CCCCC3)NC(=O)C2)cc1` showed an IC50 in data set [2] above 20000 nM.
